Reference: the supplement of paper PMC8967900

Assays:
Assay in all cases: selective drug sensitivity score (sDSS, relative to normal bone marrow) (sDSS (score)); higher = more potent and effective on the cell line relative to normal bone marrow cells
Details in all cases: 72 h
HPB-ALL = system: HPB-ALL
KASUMI-9 = system: KASUMI-9
NALL-1 = system: NALL-1
SUP-B15 = system: SUP-B15
TMD5 = system: TMD5
RCH-ACV = system: RCH-ACV
PEER = system: PEER
MHH-CALL-4 = system: MHH-CALL-4
CCRF-HSB2 = system: CCRF-HSB2
COG-LL-332h = system: COG-LL-332h
KOPN-8 = system: KOPN-8
TANOUE = system: TANOUE
COG-LL-355h = system: COG-LL-355h
697 = system: 697
380 = system: 380
COG-LL-402h = system: COG-LL-402h
JURKAT = system: JURKAT
ALL-SIL = system: ALL-SIL
COG-LL-317 = system: COG-LL-317
KARPAS-45 = system: KARPAS-45
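Note: ALL cell lines in 384-well plates, five doses spanning 10,000-fold, each plate scaled between vehicle and 100 µmol/L benzalkonium chloride controls, sDSS an adapted area-under-curve metric.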

Structure (SMILES) | selective drug sensitivity score (HPB-ALL) | selective drug sensitivity score (KASUMI-9) | selective drug sensitivity score (NALL-1) | selective drug sensitivity score (SUP-B15) | selective drug sensitivity score (TMD5) | selective drug sensitivity score (RCH-ACV) | selective drug sensitivity score (PEER) | selective drug sensitivity score (MHH-CALL-4) | selective drug sensitivity score (CCRF-HSB2) | selective drug sensitivity score (COG-LL-332h) | selective drug sensitivity score (KOPN-8) | selective drug sensitivity score (TANOUE) | selective drug sensitivity score (COG-LL-355h) | selective drug sensitivity score 697 | selective drug sensitivity score 380 | selective drug sensitivity score (COG-LL-402h) | selective drug sensitivity score (JURKAT) | selective drug sensitivity score (ALL-SIL) | selective drug sensitivity score (COG-LL-317) | selective drug sensitivity score (KARPAS-45)
Cc1ccc(=O)n(-c2ccccc2)c1 [Pirfenidone] (top concentration 10000 nM) | 0 | 0 | 0 | 0 | 0 | 0 | 0 | 0 | 0 | 0 | 0 | 0 | 0 | 0 | 0 | 0 | 0 | 0 | 0 | 0
NCCNc1ccc(NCCN)c2c1C(=O)c1ccncc1C2=O [Pixantrone] (top concentration 10000 nM) | -2.66 | -0.36 | -2.76 | -2.76 | -2.06 | -2.76 | -2.76 | -2.56 | -2.16 | -2.46 | -0.56 | -2.76 | 0.34 | -0.36 | -2.76 | -2.76 | -2.76 | -2.76 | -2.76 | -0.86
c1cc(CN2CCCNCCNCCCNCC2)ccc1CN1CCCNCCNCCCNCC1 [Plerixafor] (top concentration 10000 nM) | 0 | 0 | 0 | 0 | 0 | 0 | 0 | 0 | 0 | 0 | 0 | 0 | 0 | 0.7 | 0 | 0 | 0 | 0 | 0 | 0
O=C(c1ccc(OCCN2CCCCC2)cc1)c1c(-c2ccc(O)cc2)sc2cc(O)ccc12 [Raloxifene] (top concentration 10000 nM) | 5.02 | -0.68 | -2.28 | -2.18 | -1.88 | 0.02 | 0.82 | -2.28 | 2.42 | 0.92 | 0.52 | -1.38 | 3.92 | -0.28 | -2.28 | -1.68 | -0.58 | 1.72 | 0.42 | 3.32
CN(C)C(=O)c1cc2cnc(Nc3ccc(N4CCNCC4)cn3)nc2n1C1CCCC1 [Ribociclib] (top concentration 10000 nM) | 2.78 | 6.38 | -1.62 | 1.58 | 0.78 | 8.08 | 3.18 | -1.42 | 1.48 | 1.58 | 1.68 | -2.02 | 0.18 | 8.18 | -2.02 | 4.58 | 0.48 | -1.12 | 0.38 | 0.68
CN1CCN(CCOc2cc(OC3CCOCC3)c3c(Nc4c(Cl)ccc5c4OCO5)ncnc3c2)CC1 [Saracatinib] (top concentration 10000 nM) | -1.02 | 2.98 | -2.02 | 17 | 0.58 | 7.28 | 7.38 | -2.02 | 28.9 | 7.38 | 2.38 | -2.02 | 0.48 | 4.28 | -2.02 | 8.68 | -0.62 | 17.7 | 1.78 | 5.68
C=CC(=O)Nc1cccc(Nc2nc(Nc3ccc(OCCOC)cc3)ncc2F)c1 [Spebrutinib] (top concentration 1000 nM) | -0.16 | 4.84 | 6.34 | 0.04 | -0.16 | 4.14 | 0.74 | 3.24 | 0.04 | -0.16 | -0.16 | -0.16 | 0.64 | 1.94 | -0.16 | 0.84 | 0.74 | 1.64 | -0.16 | 1.14
C[C@@H]1CN(Cc2ccc(F)cc2)[C@@H](C)CN1C(=O)c1cc2c(C(=O)C(=O)N(C)C)cn(C)c2cc1Cl [Talmapimod] (top concentration 10000 nM) | 0 | 0 | 0 | 2.8 | 0 | 4.9 | 0 | 0 | 0 | 0 | 0 | 0 | 0 | 1 | 0 | 0 | 0.9 | 2.1 | 0 | 0
C[C@@H](C(=O)O)c1ccc(-c2ccccc2)c(F)c1 [Tarenflurbil] (top concentration 10000 nM) | -0.16 | 6.84 | 4.34 | 0.44 | 3.64 | -0.16 | -0.16 | -0.16 | -0.16 | 4.14 | -0.16 | 4.74 | -0.16 | -0.16 | -0.16 | -0.16 | -0.16 | -0.16 | -0.16 | -0.16
CNC(=O)c1cc(COc2nnc(Nc3ccc(Cl)cc3)c3ccoc23)ccn1 [Telatinib] (top concentration 10000 nM) | 0.9 | 1 | 0 | 0 | 0.9 | 0.2 | 0 | 0 | 0 | 0 | 0.9 | 0 | 0 | 1.6 | 0 | 0 | 0 | 0 | 0 | 0
O=c1sn(-c2cccc3ccccc23)c(=O)n1Cc1ccccc1 [Tideglusib] (top concentration 3000 nM) | -0.3 | -0.3 | -0.3 | -0.3 | -0.3 | -0.3 | -0.3 | 0.9 | -0.3 | -0.3 | -0.3 | -0.3 | -0.3 | -0.3 | -0.3 | -0.3 | -0.3 | 3.7 | -0.3 | -0.3
COc1cc2nccc(Oc3ccc(NC(=O)Nc4cc(C)on4)c(Cl)c3)c2cc1OC [Tivozanib] (top concentration 10000 nM) | -0.44 | 2.46 | -1.74 | 21.7 | 5.66 | 10.9 | 12.2 | -2.44 | 17.9 | 12.2 | 9.06 | -3.64 | -1.04 | 5.16 | -3.64 | 3.96 | 0.96 | 27 | 0.86 | 3.86
Cc1cc(Nc2cc(N3CCN(C)CC3)nc(Sc3ccc(NC(=O)C4CC4)cc3)n2)n[nH]1 [Tozasertib] (top concentration 10000 nM) | 7.46 | 18.4 | 19.8 | 19.1 | 14.8 | 17.9 | 22.6 | 4.66 | 21.9 | 19.9 | 19.1 | -6.64 | 2.96 | 23.2 | 19.2 | 15.4 | 1.76 | 22.4 | 21.6 | 8.56
CC1=C(/C=C/C(C)=C/C=C/C(C)=C/C(=O)O)C(C)(C)CCC1 [Tretinoin] (top concentration 10000 nM) | -1.7 | 3.4 | -2.4 | -2.4 | -2.4 | -2.4 | -2.4 | -2.4 | -2.4 | -2.4 | 0.4 | -2.4 | -1 | -1.1 | 1.7 | -2.4 | -2.4 | -2.4 | -1.8 | -1.8
COC(=O)c1ccc2c(c1)[nH]c1ncnc(NCCCN3CCCCC3)c12 [UM729] (top concentration 10000 nM) | 0.64 | 2.44 | -0.06 | 2.24 | -0.06 | 3.24 | 1.84 | 0.44 | 2.84 | 1.94 | 2.84 | -0.06 | 1.44 | 1.64 | 5.74 | 6.34 | -0.06 | 1.44 | 0.94 | 2.34
COc1cc2c(NC3CCN(C(C)C)CC3)nc(N3CCC(F)(F)CC3)nc2cc1OCCCN1CCCC1 [UNC0642] (top concentration 10000 nM) | -2.84 | 0.76 | -0.74 | 3.36 | -0.84 | 2.56 | -0.74 | 1.46 | -0.54 | 1.46 | -0.74 | -3.74 | 4.36 | 0.76 | 0.86 | 2.66 | -3.64 | -0.04 | 1.66 | 3.56
O=C(c1ccc(C(=O)N2CCC(N3CCCC3)CC2)c(Nc2ccccc2)c1)N1CCC(N2CCCC2)CC1 [UNC1215] (top concentration 10000 nM) | 0 | 0 | 0 | 0 | 0 | 0 | 0 | 0 | 0 | 0 | 0 | 0 | 0 | 0 | 0 | 0 | 0 | 0.4 | 0 | 0
CCCC(CCC)C(=O)O [Valproic_acid] (top concentration 1000000 nM) | 0 | 0 | 0 | 0 | 0 | 0 | 0 | 0 | 0 | 0 | 0 | 0 | 0 | 0 | 0 | 0 | 0 | 0 | 0 | 0
Clc1ccc(Nc2nnc(Cc3ccncc3)c3ccccc23)cc1 [Vatalanib] (top concentration 10000 nM) | 0 | 0 | 0 | 0 | 0 | 0 | 0.7 | 0.1 | 1.1 | 0.7 | 0 | 0 | 0 | 0 | 0 | 0 | 0 | 0.1 | 0.5 | 0
